Read-outs that look alike come from different tables or passages of the source.
Columns and labels:
[1] = target: T1, OR10J5 (Homo sapiens, UniProt Q8NHC4, R233W); assay: OR10J5 (+−)-2,5-dimethyl-2-indanmethanol dose-response with test compound; assay type: cell-based
T1 construct: Lucy (cleavable leucine-rich signal peptide) (N); FLAG (N); Rho (first 20 aa of bovine rhodopsin) (N); expressed in transfected cells
T1 sequence (Q8NHC4 1-309 R233W): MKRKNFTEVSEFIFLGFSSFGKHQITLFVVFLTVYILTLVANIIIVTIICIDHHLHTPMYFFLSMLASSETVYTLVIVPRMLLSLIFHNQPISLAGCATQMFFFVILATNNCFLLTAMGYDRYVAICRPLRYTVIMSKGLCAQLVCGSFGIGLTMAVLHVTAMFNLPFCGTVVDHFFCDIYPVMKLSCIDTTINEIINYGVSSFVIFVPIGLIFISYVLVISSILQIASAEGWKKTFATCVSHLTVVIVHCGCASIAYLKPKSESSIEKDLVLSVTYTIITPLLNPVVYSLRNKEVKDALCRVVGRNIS
Experimental: OR10J5 activity enhancement was tested with an additional agonist and with one of the test compounds and conditions described in the Examples above. Dose response curves to (+−)-2,5-dimethyl-2-indanmethanol was obtained in the presence of a steady concentration of the test compound and compared to a dose-response curve of the agonist alone. The resulting enhancement was quantified by means of EC50-fold shift (potency increase) and the efficacy span ratio (efficacy increase) as described above.

[2] = target: T1, OR10J5; assay: OR10J5 LYRAL® dose-response at serial enhancer concentrations, allosteric EC50 shift model; assay type: cell-based
Experimental: Functional dose-response experiments were performed to reveal the allosteric nature of the interaction between heliopropanal, 3-(4-methylcyclohex-3-en-1-yl)butanal, melonal and heptanal and OR10J5. The level of enhancement of OR10J5's activation was evaluated at distinct concentrations of each enhancer. Using the same cell-based assay described earlier, dose response curves of OR10J5 to LYRAL® in the presence of serial concentrations of the enhancers spanning from 0 to 600 μM were performed, see FIG. 19. The curves were obtained by applying the simplified Allosteric EC50 shift effect equation (available in Prism7) derived from the ternary complex interaction model. The enhancement levels recorded were not linearly dependent on the concentration of the enhancer, and the following key parameters values for α (the cooperativity factor) and KB (the equilibrium dissociation constant of the enhancer) were obtained from the model for each enhancer: heliopropanal, α=6.3 and KB=10 μM; 3-(4-methylcyclohex-3-en-1-yl)butanal, α=7.5 and KB=15 μM; melonal, α=4.1 and KB=16 μM; and heptanal; α=3.2 and KB=51 μM. α>1 is indicative of positive allosteric modulation.

[3] = target: T2, OR5AN1 (Homo sapiens, UniProt Q8NGI8); assay: OR5AN1 MUSCENONE® dose-response at serial enhancer concentrations, allosteric EC50 shift model; assay type: cell-based; details: enhancer 0 to 1 mM; for Kb: read-out: KB (equilibrium dissociation constant)
T2 construct: FLAG (N); Rho (first 20 aa of bovine rhodopsin) (N); expressed in transfected cells
T2 sequence (Q8NGI8 1-311): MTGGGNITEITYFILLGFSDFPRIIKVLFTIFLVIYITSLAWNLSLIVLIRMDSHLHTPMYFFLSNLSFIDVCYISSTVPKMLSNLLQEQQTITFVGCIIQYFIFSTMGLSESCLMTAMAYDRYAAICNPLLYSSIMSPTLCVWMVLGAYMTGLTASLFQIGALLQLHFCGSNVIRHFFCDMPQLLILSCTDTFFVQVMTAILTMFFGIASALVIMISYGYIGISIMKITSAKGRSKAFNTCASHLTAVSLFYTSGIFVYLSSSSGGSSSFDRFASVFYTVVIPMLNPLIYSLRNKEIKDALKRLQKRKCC
Experimental: The level of enhancement of OR5AN1's activation was evaluated at distinct concentrations of the enhancer. […] The curves were obtained by applying the simplified Allosteric EC50 shift effect equation (available in Prism5, v. 5.02) derived from the ternary complex interaction model. The enhancement levels recorded were not linearly dependent on the concentration of the enhancer, and the following key parameters values for a (the cooperativity factor) and KB (the equilibrium dissociation constant of TDA) obtained from the model: α=15.7 and KB=259 μM. α>1 is indicative of positive allosteric modulation.

[4] = target: T3, OR10J5 olfactory receptor (Homo sapiens, UniProt Q8NHC4, R233W); assay: Single point binary mixture screen (LYRAL® + test compound) for OR10J5 activity enhancement; assay type: cell-based; details: LYRAL® 4.6 and test compound 300 μM; numbered by decreasing OR10J5 activity (span)
T3 construct: Lucy (cleavable leucine-rich signal peptide) (N); FLAG (N); Rho (first 20 aa of bovine rhodopsin) (N); expressed in transfected cells
T3 sequence (Q8NHC4 1-309 R233W): T1 sequence (Q8NHC4 1-309 R233W)
Excerpt: The Lucy-Flag-Rho-tagged receptor is co-transfected with the olfactory canonical G-protein Golf and exposed to a binary mixture of a single concentration of a floral muguet compound and a test compound.
A dose response curve showing the activation of OR10J5 in response to the floral muguet compound […], 4-(4-hydroxy-4-methylpentyl)cyclohex-3-ene-1-carbaldehyde or a mixture thereof (sold under the tradename LYRAL®, hereinafter referred to as “LYRAL®”) is shown in FIG. 15. Using a cell-based assay, OR10J5 activity was tested in a HEK293T cell line wherein the endogenous chaperone RTP1 gene has been activated and the odorant receptor chaperone was expressed according to the methods disclosed in International Patent Application Publication No. WO2016/201153 A1. The Flag-Rho-tagged receptor was co-transfected with the olfactory canonical G-protein Golf and was exposed to a binary mixture of a single concentration of LYRAL® and a test compound.
A library of volatile compounds was used to create binary mixtures of each compound with LYRAL® at approximately EC20, a concentration eliciting only approximately 20% of full activity level of OR10J5 by itself. An activation cell-based assay was used for the initial enhancer candidate identification. Single binary mixture-induced receptor activity was detected by measuring the cAMP increase in the cytosol using an HTRF (Homogenous Time-Resolved Fluorescence unit) based kit (CisBio, cAMP dynamic 2 kit, 62AM4PEJ).
800 binary mixtures were created by mixing a LYRAL® stock solution with a stock solution of each test compound to a final concentration 4.6 and 300 μM, respectively. Stock solutions were made of compounds dissolved in pure DMSO. Each mixture was presented to a cell line expressing the OR10J5 olfactory receptor. The final concentration of DMSO in each binary mixture was 0.1%, and had no visible effect on the cells (see FIG. 16).
The resulting activation was then measured and compared to LYRAL® alone (defining the baseline of the enhancement assay). The quality of the HTS process was determined and the window variability and signal reliability were assessed by calculating the Z′ value of each plate. […] These OR10J5 olfactory receptor agonists further confirmed that the dynamic range of the assay window was sufficient (as the responses recorded were well above baseline) and thus likely sensitive enough to detect even low levels of putative enhancement.

[5] = target: T4, OR5AN1 olfactory receptor (Homo sapiens, UniProt Q8NGI8); assay: OR5AN1 dose-response of musk agonist with and without modulator, and of candidate alone (EC50 shift, span); assay type: cell-based
T4 construct: FLAG (N); Rho (first 20 aa of bovine rhodopsin) (N); expressed in transfected cells
T4 sequence (Q8NGI8 1-311): T2 sequence (Q8NGI8 1-311)
Experimental: 15 candidates, marked as “enhancement” in Table 2 were identified. Strikingly, 80% of these putative enhancers (12/15) belonged to the same class of chemicals: unsaturated aliphatic aldehydes. Next, two parallel dose-response experiments to confirm the true enhancement properties of the potential candidates were performed. First, a dose-response of each individual candidate was performed to determine if it was an agonist by itself. Second, a MUSCENONE® dose-response curve in the presence and absence of a 250 μM concentration of the putative modulator was assessed for EC50 shifts.
Dose response curves to MUSCENONE® were obtained in the presence of 250 μM of each compound and compared to a dose-response curve of MUSCENONE® alone. The resulting enhancement was quantified by means of EC50-fold shift (potency increase) and the efficacy span ratio (efficacy increase).
The EC50-fold shift was obtained by […]. The span ratio was obtained by dividing the span of MUSCENONE®+compound by the reference span of MUSCENONE® alone. Specifically, diverse aliphatic α-β mono- or poly-unsaturated molecules have been compared.

[6] = test system: human panelists; assay: Human MUSCENONE® odor detection threshold (ODT), forced-choice triangle tests with background odor; assay type: in vivo; details: background compound at 0.1%; 2/3 correct responses
Experimental: Sensitivity of human individuals to MUSCENONE® was evaluated by performing an odor detection threshold (ODT) test. The ODT test consisted of identifying the concentration for which 50%, preferably 66%, of the panelists are able to determine which of three containers contains the target compound MUSCENONE® in a forced-choice triangle tests. Two tests were performed to calculate the ODT in mixtures containing MUSCENONE® plus a perceivable background odor of chemically similar molecules a) the enhancer tridecylenic aldehyde and b) the non-enhancing volatile compound, nonanal.
27 panelists were given a series of triangle tests with increasing concentration of MUSCENONE® in the presence of nonanal at a concentration of 0.1%. Within each triangle test, the three samples contained nonanal at 0.1% and one sample also contained MUSCENONE®. In each triangle test, the panelists were asked to identify the one sample that was different from the other two samples. The ODT was calculated by fitting a non-linear regression model onto the data and calculating the MUSCENONE® concentration at which the proportion of correct responses was equal to 2/3 (66%, the midpoint between chance rate 1/3 and all correct answers 1). […]

[7] = target: T5, Olfr1440 (Mus musculus, UniProt Q8VFV4); assay: Olfr1440 MUSCENONE®-induced activation in the presence of enhancer (control); assay type: cell-based; details: FIG. 5
T5 construct: expressed in transfected cells
T5 sequence (Q8VFV4 1-315): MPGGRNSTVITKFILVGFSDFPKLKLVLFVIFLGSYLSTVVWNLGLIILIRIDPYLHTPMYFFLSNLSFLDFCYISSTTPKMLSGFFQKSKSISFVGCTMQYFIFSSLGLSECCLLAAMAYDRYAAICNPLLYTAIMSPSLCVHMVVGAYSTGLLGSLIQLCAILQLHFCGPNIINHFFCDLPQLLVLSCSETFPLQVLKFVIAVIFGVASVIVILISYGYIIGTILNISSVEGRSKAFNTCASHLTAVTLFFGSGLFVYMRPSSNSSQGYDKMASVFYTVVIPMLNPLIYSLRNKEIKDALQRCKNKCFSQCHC
Experimental: Furthermore and as a control, a similar experiment was performed on the mouse MUSCENONE® responsive odorant receptor Olfr1440, the ortholog of OR5AN1.

[8] = LYRAL®, enhancer 0 to 600 μM, read-out: KB (equilibrium dissociation constant of the enhancer)

## Cc1ccc2c(c1)CC(C)(CO)C2 (racemic) [(+−)-2,5-dimethyl-2-indanmethanol, reference compound]
[1]
  agonist type on OR10J5: partial agonist

## CC1=CC[C@H](C(C)CC=O)CC1 (stereo partly drawn) [3-(4-methylcyclohex-3-en-1-yl)butanal]
[2]; LYRAL®, enhancer 0 to 600 μM
  α (cooperativity factor): 7.5
[2]; [8]
  Kb: 15 µM

## CCCCCCC=O [Heptanal]
[2]; LYRAL®, enhancer 0 to 600 μM
  α (cooperativity factor): 3.2
[2]; [8]
  Kb: 51 µM

## CCCCCCCC=CC=O [Hit 2-decenal, 2-decenal]
[3]
  α (cooperativity factor): 37.3
  Kb: 264 µM

## CC/C=C\CCCCC=O [Hit 23]
[4]
  Hit Type: Enhancement

## CCCCCC=O [Hit 24]
[4]
  Hit Type: Enhancement

## C[C@@H](CC=O)CCCC(C)(C)O [Hit 25]
[4]
  Hit Type: Agonist

## CC(C)=CCCC1=CCC(C)(C=O)CC1 (stereo not drawn) [Hit 26]
[4]
  Hit Type: Enhancement

## CC(C)=CCCC(C)C=O (stereo not drawn) [Hit 27]
[4]
  Hit Type: Enhancement

## O=Cc1ccccc1 [Hit 28]
[4]
  Hit Type: Enhancement

## CCCCC/C=C/C=C/C=O [Hit 32]
[4]
  Hit Type: Enhancement

## CCCCCCCCC=O [Hit 33]
[4]
  Hit Type: Enhancement

## C=CC(C)CCCC(C)(C)O (stereo not drawn) [Hit 34]
[4]
  Hit Type: Agonist

## CCCCCCC1CCCC(=O)O1 (stereo not drawn) [Hit 35]
[4]
  Hit Type: Enhancement

## Cc1ccc(CC(C)C=O)cc1 (stereo not drawn) [Hit 36]
[4]
  Hit Type: Enhancement

## O=Cc1ccc2c(c1)OCO2 [Hit 37]
[4]
  Hit Type: Enhancement

## CC1=CC(C)C(C=O)C(C)C1 (stereo not drawn) [Hit 39]
[4]
  Hit Type: Enhancement

## CCc1occc(=O)c1O [Hit 40]
[4]
  Hit Type: Enhancement

## CCc1ccc(C=O)cc1 [Hit 41]
[4]
  Hit Type: Enhancement

## C[C@@H]1CC[C@H]2[C@H](C)C(=O)O[C@@H]2C1 [Hit 42]
[4]
  Hit Type: Enhancement

## COC(C)(C)CCCC(C)C=O (stereo not drawn) [Hit 43]
[4]
  Hit Type: Enhancement

## CCCCCC/C=C/C=O [Hit 44]
[4]
  Hit Type: Enhancement

## CCCCCC/C=C/C=O [Nonylenic aldehyde]
[3]
  α (cooperativity factor): 28.8
  Kb: 96 µM

## CCCCCCCCCC/C=C/C=O [TDA, tridecylenic aldehyde]
[5]; compound alone
  activation of OR5AN1 by the compound by itself: did not activate
[5]; compound alone, above approximately 100 μM
  activation as % of the MUSCENONE® activation window: less than 8%
[5]; enhancer at 250 μM
  maximal activation level (span) of MUSCENONE®: increased span
[6]
  MUSCENONE® ODT value when mixed with the compound: 0.09%
[7]
  enhancement of Olfr1440 MUSCENONE®-induced activity: did not enhance

## CC(C=O)Cc1ccc2c(c1)OCO2 (stereo not drawn) [heliopropanal]
[1]; within the dynamic range of the dose response
  efficacy increase of (+−)-2,5-dimethyl-2-indanmethanol: 1.7 fold
[2]
  Kb: 10 µM
[2]; LYRAL®, enhancer 0 to 600 μM
  α (cooperativity factor): 6.3

## CC(C)=CCCC(C)C=O (stereo not drawn) [melonal]
[2]; LYRAL®, enhancer 0 to 600 μM
  α (cooperativity factor): 4.1
[2]; [8]
  Kb: 16 µM

## CCCCCCCCC=O [nonanal, reference compound]
[6]
  MUSCENONE® ODT value when mixed with the compound: 0.93%

## C=CCCCCCCCCC(=O)O [undecenoic acid]
[5]; 250 μM of each compound
  enhancement of OR5AN1 MUSCENONE® response (SAR): absence of enhancement

Source: patent US11921105B2, “Method for identifying positive allosteric modulators for odorant receptors” (FIRMENICH SA, priority 2017, dated 2024)
